In data set [1] the test system is monoclonal antibody 13E3. The data set can be described thus: High-volume screen, fluorescent antibody competition assay (inhibition of binding of CS-045 bPE). Set-up: species or system mouse. Conditions: for % inhibition in screen: approximately 2 μg/ml final concentration, CS-045 bPE binding to 13E3; for IC50: non-thiazolidinedione hits from high-volume screen. The protocol:
(§1) Serial dilutions of test compound, fermentation broth, or tissue containing test compound or putative anti-idiotype culture supernatant (20 μl/well) were incubated 20 minutes in 96-well Pandex plates with the appropriate antibody (20 μl/well; 1 μg/ml) plus either goat anti-mouse IgG Latex beads or goat anti-rabbit IgG linked to polystyrene beads (IDEXX) (20 μl/well; 1:2 dilution). Fluorescent reference particles (IDEXX) were included in all assays to minimize well-to-well variation in filtration. Fluorescent CS-045 bPE or LY 301318 bPE (20 μl/well; 1:2,000 dilution) was then added to the wells. Incubations were terminated after 20 minutes by vacuum filtration and the polystyrene particles retained on the Pandex filters were then washed twice with TBS-A buffer (described below) and solid phase fluorescence determined as described above.
(§2) Assay buffers typically contained bovine serum albumin (Sigma) at 0.2% (for monoclonal antibody assays) or 0.5% BLOTTO (non-fat dry milk for rabbit antibody assays). Percent inhibition of binding in test incubations was calculated in relationship to binding in control incubations in which no test compound was added using the following formula: % inhibition=[1-(fluorescence at 575/620 nm in test incubations divided by fluorescence at 575/620 nm in control incubations)×100)]. Concentrations of test compound in fermentation broth or plasma was calculated by interpolation from a standard curve generated with known concentrations of the appropriate compound as described in Taber et al., Clinical Chemistry, 37(2):254 (1991).
The fluorescent antibody competition assay for high-volume screening was adapted as described below. Goat anti-mouse particles (1:2 dilution), fluorescent reference particles (dilution was optimized for each lot), and monoclonal antibody 13E3 (1 μg/ml) were premixed in TBS-A reaction buffer (0.02M Tris, 0.15M NaCl, 0.2% bovine serum albumin, 0.01% thimerosal, pH 7.5) and 40 μls was added to each well of the Pandex plate. Synthetic organic compounds (dissolved at 5 mg/ml DMSO and then diluted in TBS-A reaction buffer to 2 μg/ml) or 1:40 dilutions of fermentation broths were added to appropriate wells (20 μl/well) and incubated for approximately 20 minutes at room temperature. To each well was next added 20 μl of CS-045 bPE fluorogen; this final mixture was again incubated for approximately 20 minutes at room temperature in the dark. Wells were then aspirated by vacuum filtration and washed twice with TBS-A reaction buffer, and surface fluorescence was read at 545/575 nm and 590/620 nm using the Screen Machine (IDEXX Laboratories, Westbrook, Me.). Each Pandex plate contained both a negative control (only reaction buffer) and a positive control (LY 282449).
Final concentrations of synthetic organic compounds in high-volume screens was approximately 2 μg/ml and final concentrations of filtered fermentation broths were 1:40 (v/v). Wells that produced greater than 50% inhibition of binding of CS-045 bPE on both the initial screening and on retesting were considered positives. […] This problem was eliminated by inspection of data from each channel.

The test system of another data set is monoclonal antibody 8D6. The data set is described as follows: Fluorescent antibody competition assay, IC50 determined with MoAb 8D6. The format is binding, mouse. The protocol: (§3) All hybridoma media were screened for monoclonal anti-CS-045 antibodies on day 17 after fusion. The fluorescent antibody capture method was used and approximately 60 monoclonal antibodies were positive for binding of the CS-045 bPE fluorogen. Among these positive monoclonal antibodies, approximately 6 had binding affinity for 3 tested thiazolidinedione ISEs--LY 282449, [drawing 2] CS-045, and ciglitazone. Fifty percent binding inhibitory concentrations (IC50) were determined and data from 4 monoclonal antibodies are shown in Table 1 below.
as §1, with “Fluorescent CS-045 bPE or LY 301318 bPE (20 μl/well; 1:2,000 dilution) was then added to the wells.” left out
as §2

The next data set relates to monoclonal antibody 10E1. The data set can be described thus: Fluorescent antibody competition assay, IC50 determined with MoAb 10E1. The format is binding, mouse. The protocol:
as §3
as §1, with “Fluorescent CS-045 bPE or LY 301318 bPE (20 μl/well; 1:2,000 dilution) was then added to the wells.” left out
as §2

In data set [2] the test system is monoclonal antibody 13E3. The data set can be described thus: Fluorescent antibody competition assay, IC50 determined with MoAb 13E3. The data set is classed as binding, mouse. The protocol: as §3
as §1, with “Fluorescent CS-045 bPE or LY 301318 bPE (20 μl/well; 1:2,000 dilution) was then added to the wells.” left out
as §2

Another data set has as its system monoclonal antibody 8F1. The data set can be described thus: Fluorescent antibody competition assay, IC50 determined with MoAb 8F1. The data set is classed as binding, mouse. The protocol: as §3
as §1, with “Fluorescent CS-045 bPE or LY 301318 bPE (20 μl/well; 1:2,000 dilution) was then added to the wells.” left out
as §2

Data set [3] can be described thus: Plasma levels of LY 116196 by fluorescent antibody competition assay. The format is in vivo, mouse. The conditions noted are these: for concentration at 1 h: 1 hr after third injection; for concentration at 3 h: 3 hr after third injection; for concentration at 6 h: 6 hr after third injection. The protocol:
as §1, §2
In the same experiment described in FIG. 4, plasma was prepared from tail blood drawn at 1, 3, 6, and 24 hours after the third subcutaneous injection of LY 116196. Plasma concentrations of LY 116196 (shown in Table 5) were determined directly by the fluorescent antibody competition assay using standards of LY 116196 diluted in TBS-A buffer containing 10% (v/v) normal mouse plasma. This method also has been used to measure blood concentrations of several compounds recognized by monoclonal antibody 13E3 and/or other antibodies produced by the methods described above. Thus, these reagents appear to have general utility for determining […] and tissue concentrations of immunologically positive compounds.

The test system of data set [4] is diabetic female (Avy/a) mice. The data set can be described thus: Fed blood glucose in dexamethasone-treated diabetic female Avy/a mice. The conditions noted are these: subcutaneous, three days; FIG. 4. The format is in vivo, mouse. The protocol: In order to determine if any of these novel, non-thiazolidinedione structures had anti-diabetic activity, LY 116196 was administered subcutaneously for three days to female Avy/a mice, which had been made diabetic by implantation of dexamethasone pellets. These dexamethasone-treated mice are characterized by both hyperglycemia and hyperinsulinemia and are models of type II diabetes. Sulfonylureas and other insulin secretagogues have little, if any, effect on blood glucose concentrations in this insulin-resistant animal model. […] Thus, this high-volume screen has detected a novel, anti-diabetic compound, LY 116196.

For another data set, the system named is 13E3 F(ab')2 fragments. The data set is described as follows: ELISA competitive inhibition between CS-045 and anti-idiotypic antibodies on 13E3 F(ab')2 fragments. The format is binding, mouse. Conditions: 0-200 μM CS-045; FIG. 3. The protocol:
To test whether or not CS-045 could, in turn, displace these anti-idiotypicantibodies, 0.3 μg/well of 13E3 F(ab')2 fragments were coated onto microtiter plates and blocked with 1% BLOTTO (non-fat dry milk). Between 0-200 μM of CS-045 was added to duplicate wells. After approximately two hours at room temperature, wells were washed with BLOTTO and 500 ng of anti-idiotypic antibody 2E5 or 7E7 was added for approximately 1 hour. Goat anti-mouse (Fc -specific) conjugated with horseradish peroxidase was added and, after 30 minutes, washed 3 times with BLOTTO. A peroxidase substrate, tetramethylbenzidine (Kirkegaard and Perry Laboratories, Gaithersberg, Md.) was added and color was developed for approximately 30 minutes at room temperature.
Background: In an ELISA, binding on a coated surface is turned into a signal by an enzyme label.

Molecules are shown by their SMILES.

As usually defined, the IC50 is the concentration that inhibits the measured activity by half. A high value points to weaker potency in that assay. For `CC(C)(Oc1ccc(/C=C/C(=O)c2ccccc2)cc1)C(=O)O` [LY 099238], in the data set with monoclonal antibody 13E3 [1], the “% inhibition in screen” value is listed as 87% and the IC50 turned out to be 2000 nM.
Turning to `O=C(Nc1ccc(Br)c(Cl)c1)C(F)(C(F)(F)F)C(F)(F)F` [LY 800663], in the data set on monoclonal antibody 13E3 [1], the “% inhibition in screen” value is given as 65% and the IC50 came out at 8000 nM.
Turning to `O=C(CC(=O)Nc1nc(-c2ccc(Cl)cc2)cs1)NCCO` [LY 305329], in the data set on monoclonal antibody 13E3 [1], the “% inhibition in screen” value turned out to be 53% and the IC50 amounted to 3600 nM.
As to `O=C(O)CC(=O)Nc1nc(-c2ccc(Cl)cc2)cs1` [LY 305334], in the data set on monoclonal antibody 13E3 [1], the “% inhibition in screen” value amounted to 89% and the IC50 amounted to 250 nM.
In the same order, the values of `N#Cc1cc(F)cc(F)c1NC(=O)c1ccc(Cl)c(Cl)c1` [LY 820960] are 55% and 4000 nM.
For `CCOC(=O)C(C)OP(=O)(Nc1ccccc1)OC(C)C(=O)OCC` (stereo not shown) [LY 222072], in the data set with monoclonal antibody 13E3 [1], the “% inhibition in screen” value turned out to be 101% and the IC50 was 8000 nM.
For the compound `O=C(O)COc1ccccc1/C=N/N=C/c1ccccc1OCC(=O)O` [LY 281809], in the data set with monoclonal antibody 13E3 [1], the “% inhibition in screen” value is recorded as 89% and the 50% inhibitory concentration (IC50) is 2000 nM.
Take `CCCCCC(=O)c1ccc(OC(C)(C)C(=O)O)cc1` [LY 044047]: in the data set on monoclonal antibody 13E3 [1], the “% inhibition in screen” value came to 61% and the IC50 came to 4000 nM.
In the case of `O=c1[nH]c(=O)n(Cc2ccc(OCCc3coc(-c4ccccc4)n3)cc2)o1` [LY 301563], in the data set on monoclonal antibody 13E3 [1], the “% inhibition in screen” value is 88% and the IC50 came out at 250 nM.
Regarding `CN1C(=CC(=C(C=Cc2ccc3ccccc3[n+]2C)Oc2ccccc2O)c2ccccc2)C=Cc2ccccc21` [LY 283909], the “% inhibition in screen” value with monoclonal antibody 13E3 [1] worked out at 70%.
As to `O=P(O)(O)c1ccc(N=Nc2cc(C(F)(F)F)cc3nc(C(F)(F)C(F)F)[nH]c23)cc1` [LY 296345], in the data set on monoclonal antibody 13E3 [1], the “% inhibition in screen” value is given as 94% and the IC50 was found to be 250 nM.
On to `O=C1NC(=O)C(Cc2ccc3oc(Cc4ccc5ccccc5c4)nc3c2)S1` (stereo not shown) [LY 282449], for which the IC50 in the data set on monoclonal antibody 8D6 was 4760 nM; in the data set on monoclonal antibody 10E1 it was 1410 nM; in the data set with monoclonal antibody 13E3 [2], 520 nM; in the data set with monoclonal antibody 8F1, 4980 nM.
For `CC1(COc2ccc(CC3SC(=O)NC3=O)cc2)CCCCC1` (stereo not shown) [Ciglitazone, ciglitazone], the IC50 in the data set on monoclonal antibody 8D6 is 125 nM; in the data set on monoclonal antibody 10E1, 989 nM; in the data set with monoclonal antibody 13E3 [2] it was 1160 nM; with monoclonal antibody 8F1 it was 12300 nM.
With `FC(F)(F)c1nc2cc(Cl)c(Cl)cc2[nH]1` [LY 047310], in the data set with monoclonal antibody 13E3 [1], the “% inhibition in screen” value is 60% and the IC50 is 5000 nM.
Turning to `CN(C)C=Nc1nc2c(s1)CCc1sc(C=NN(C)C)nc1-2` [LY 181036], in the data set with monoclonal antibody 13E3 [1], the “% inhibition in screen” value stood at 90% and the IC50 is 2000 nM.
Regarding `CC(C)(Oc1ccc(C(=O)c2ccc(OC(C)(C)C(=O)O)cc2)cc1)C(=O)O` [LY 116196], in the data set with monoclonal antibody 13E3 [1] (545/575 nm, 4.0 μM), the “Relative fluorescence, sample channel” value is reported as 360. The “Relative fluorescence, reference channel” value in the data set with monoclonal antibody 13E3 [1] (590/620 nm, 4.0 μM) was 6,500. In addition, in the data set on monoclonal antibody 13E3 [1], the “% inhibition in screen” value came out at 105% and the IC50 is 60 nM. Moreover, in data set [3] (30 mg s.c., 24 hr after third injection), the “Plasma concentration of LY 116196” value stood at 0 nM. For the same compound, in data set [3] (100 mg s.c., 24 hr after third injection), the “Plasma concentration of LY 116196” value stood at 0 nM. In addition, in data set [3] (mouse, plasma, sc, 30 mg s.c.), the concentration at 1 h was determined as 25 ± 11 µM, the concentration at 3 h amounted to 0.32 ± 0.2 µM and the concentration at 6 h came to 0.104 ± 0.052 µM. Besides, in data set [3] (mouse, plasma, sc, 100 mg s.c.), the concentration at 1 h worked out at 83.3 ± 8 µM, the concentration at 3 h stood at 6 ± 1.6 µM and the concentration at 6 h was 0.268 ± 0.088 µM. In data set [3] (mouse, plasma, sc, 300 mg s.c.), this compound returned a concentration at 1 h of 528 ± 72 µM, a concentration at 3 h of 24 ± 5.5 µM and a concentration at 6 h of 6.4 ± 3 µM. In data set [3] (mouse, plasma, sc, 300 mg s.c., 24 hr after third injection), this compound returned a concentration at 24 h of 0.452 ± 0.022 µM. For the same compound, the Fed blood glucose entry in data set [4] was “effectively lowered fed blood glucose”.
As for `Cc1c(C)c2c(c(C)c1O)CCC(C)(COc1ccc(CC3SC(=O)NC3=O)cc1)O2` (stereo not shown) [CS-045], the “Displacement of anti-idiotypic antibodies 2E5 and 7E7” value in the data set with 13E3 F(ab')2 fragments is listed as “can displace two anti-idiotypic antibodies”. In addition, the IC50 turned out to be 77 nM in the data set on monoclonal antibody 8D6, 30 nM in the data set on monoclonal antibody 10E1, 200 nM with monoclonal antibody 13E3 [2] and 1150 nM with monoclonal antibody 8F1.

Source of the values: patent US5466610A, “Immunoassays for insulin sensitivity enhancers, insulin sensitivity enhancer antibodies, and non-thiazolidinedione insulin sensitivity enhancer compositions” (Eli Lilly and Company, priority 1993, dated 1995).
